Measurements: patent US5559101A, “L-ribofuranosyl nucleosides” (priority 1994, dated 1996)
Values after ≈ are worked out from the molar mass of the structure shown.

Legend:
HS578T (breast) = experiment: Radiometric growth inhibition of tumor cells, HS578T; format: cell-based, human
From the text: (§1) CELL LINES: Eight different established human cell lines CALU (lung), COLO320 (colon), H578St (breast), HT-29 (colon), MCF-7 (breast), OM-1 (colon), SKLU (lung) and SKMES(lung), and two control cell lines (bone marrow and/or fibroblast cells) were utilized. All cell lines were obtained from the Tumor Cloning Laboratory, Institute for Drug Development, Cancer Therapy and Research Center, San Antonio, Tex. All cell lines grew as monolayers in the appropriate culture medium supplemented with heat-inactivated calf serum. All reagents were obtained from Grand Island Biological Co., Grand Island, N.Y.
(§2) The iv formulations of the compounds of the present invention were prepared with sterile buffered saline and stored at -70° C. until required for testing.
(§3) Following trypsinization, tumor cells were suspended in tissue culture medium and exposed to the antitumor agents continuously at three different concentrations: 10, 1 and 0.1 μg/ml.
(§4) RADIOMETRIC MEASUREMENT OF GROWTH INHIBITION: Growth inhibition was assessed with the BACTEC System 460 (Johnston Laboratories, Towson, Md.) after addition of the antitumor agent to the cell in the respective growth medium containing ^14 C-glucose at a final concentration of 2 μCi/ml.
(§5) Two mls of the tumor cell suspension containing radioactive glucose were seeded into sterile, disposable 15 ml vials by injection through self-sealing rubber-aluminum caps. […] The seeded vials were then incubated at 37° C. Measurement of the release of ^14 CO2 resulting from the metabolism of ^14 C-glucose were performed on days 6, 9, 12 and 15 in the BACTEC instrument. This instrument flushes the ^14 CO2 containing air out of the vials into an ionization chamber that converts dpm to growth index values. […] Each data point represents triplicate values.
(§6) All compounds were dosed on an equimilimolar basis.

SKLU (lung) = experiment: Radiometric growth inhibition of tumor cells, SKLU; format: cell-based, human
From the text: as §1, §2, §3, §4, §5, §6

[1] = In vitro survival of bone marrow control cells (radiometric BACTEC); format: cell-based; conditions: bone marrow cells
From the text: as §1, §2, §3, §4, §5, §6

OM-1 (colon) = experiment: Radiometric growth inhibition of tumor cells, OM-1; format: cell-based, human
From the text: as §1, §2, §3, §4, §5, §6

COLO320 (colon) = experiment: Radiometric growth inhibition of tumor cells, COLO320; format: cell-based, human
From the text: as §1, §2, §3, §4, §5, §6

HT29 (colon) = experiment: Radiometric growth inhibition of tumor cells, HT29; format: cell-based, human; set-up: % SURVIVAL TUMOR: concentration or dose not given beside the values
From the text: as §1, §2, §3, §4, §5, §6

MCF-7 (breast) = experiment: Radiometric growth inhibition of tumor cells, MCF-7; format: cell-based, human; set-up: % SURVIVAL TUMOR: concentration or dose not given beside the values
From the text: as §1, §2, §3, §4, §5, §6

CALU (lung) = experiment: Radiometric growth inhibition of tumor cells, CALU; format: cell-based, human; set-up: % SURVIVAL TUMOR: concentration or dose not given beside the values
From the text: as §1, §2, §3, §4, §5, §6

SKMES (lung) = experiment: Radiometric growth inhibition of tumor cells, SKMES; format: cell-based, human
From the text: as §1, with “N.Y. […]” for “N.Y.”
RADIOMETRIC MEASUREMENT OF GROWTH INHIBITION: Growth inhibition was assessed with the BACTEC System 460 (Johnston Laboratories, Towson, Md.) after addition of the antitumor agent to the cell in the respective growth medium containing ^14 C-glucose at a final concentration of 2 μCi/ml. […]
Two mls of the tumor cell suspension containing radioactive glucose were seeded into sterile, disposable 15 ml vials by injection through self-sealing rubber-aluminum caps. […] Chemotherapy sensitivity was calculated by comparing the growth index values of drug-treated vials to that observed in control vials. […]

Structure (SMILES): O=c1[nH]cc(F)c(=O)[nH]1 [Example 5-FU, 5-fluorouracil, reference compound]
- % SURVIVAL TUMOR (HS578T (breast); HS578T, continuous exposure): 43.5%
- IC50 (HS578T (breast); Homo sapiens, Hs-578T): < 0.6 µg/mL
- IC50 (SKLU (lung); Homo sapiens): 1.05 µg/mL (≈ 8.07 µM)
- % SURVIVAL TUMOR (SKLU (lung); human, sklu lung tumor cells): 5.0%
- viability [1]: 1.9%
- IC50 (OM-1 (colon); Homo sapiens): 1.47 µg/mL (≈ 11.3 µM)
- % SURVIVAL TUMOR (OM-1 (colon); human, om-1 colon tumor cells): 1.7%
- IC50 (COLO320 (colon); Homo sapiens, COLO 320): < 0.6 µg/mL
- % SURVIVAL TUMOR (COLO320 (colon); human, colo320 colon tumor cells): 1.0%
- % SURVIVAL TUMOR (HT29 (colon); HT29, continuous exposure): 1.2%
- IC50 (HT29 (colon); Homo sapiens, HT-29): 0.613 µg/mL (≈ 4.71 µM)
- IC50 (MCF-7 (breast); Homo sapiens, MCF7): < 0.6 µg/mL
- % SURVIVAL TUMOR (MCF-7 (breast); MCF-7, continuous exposure): 0.8%
- % SURVIVAL TUMOR (CALU (lung); CALU, continuous exposure): 2.2%
- IC50 (CALU (lung); Homo sapiens): < 0.6 µg/mL
- IC50 (SKMES (lung); Homo sapiens, concentration required to kill 50%): < 0.6 µg/mL
- % SURVIVAL TUMOR (SKMES (lung); continuous exposure): 11.2%
